Laboratory results as given in ChEMBL document CHEMBL4354782, “Quinolone antibiotics” (Medchemcomm, 2019).
Values after ≈ are worked out from the molar mass of the structure shown.

Legend:
Escherichia coli = assay: Antibacterial activity against Escherichia coli by agar diffusion method; type: functional
Pseudomonas aeruginosa = assay: Antibacterial activity against Pseudomonas aeruginosa by agar diffusion method; type: functional
Klebsiella = assay: Antibacterial activity against Klebsiella by agar diffusion method; type: functional
Haemophilus influenzae = assay: Antibacterial activity against Haemophilus influenzae with horse blood by agar diffusion method; type: functional
Staphylococcus aureus = assay: Antibacterial activity against Staphylococcus aureus by agar diffusion method; type: functional
Streptococcus pneumoniae = assay: Antibacterial activity against Streptococcus pneumoniae by agar diffusion method; type: functional
Streptococcus pyogenes = assay: Antibacterial activity against Streptococcus pyogenes by agar diffusion method; type: functional
Enterococcus = assay: Antibacterial activity against Enterococcus by agar diffusion method; type: functional
[1] = Cmax in human at 0.4 g, po; type: ADME; parameters: dose 0.4 g, route oral; settings: in vivo
[2] = AUC in human at 0.4 g, po; type: ADME; settings: in vivo
[3] = Half life in human at 0.4 g, po; type: ADME; settings: in vivo
[4] = Protein binding in human at 0.4 g, po; type: ADME; settings: in vivo, read-out: PB (converted)
[5] = Cmax in human at 0.4 g, po by HPLC analysis; type: ADME, organism-based; parameters: dose 0.4 g, route oral; settings: in vivo
[6] = AUC in human at 0.4 g, po by HPLC analysis; type: ADME, organism-based; settings: in vivo
Bacteroides fragilis = assay: Antibacterial activity against Bacteroides fragilis by agar diffusion method; type: functional
[7] = Half life in human at 1 g, po administered for 4 times; type: ADME, organism-based; settings: in vivo
Clostridium perfringens = assay: microbe, parasite or virus in culture
[8] = Cmax in human at 0.4 g, po bid; type: ADME, organism-based; parameters: dose 0.4 g, route oral; settings: in vivo
[9] = AUC in human at 0.4 g, po bid; type: ADME, organism-based; settings: in vivo
[10] = Half life in human at 0.4 g, po bid; type: ADME, organism-based; settings: in vivo
[11] = Protein binding in human at 0.4 g, po bid; type: ADME, organism-based; settings: in vivo, read-out: PB (converted)
[12] = Toxicity in human assessed as gastrointestinal effect
[13] = Toxicity in human assessed as arthralgia effect
Homo sapiens = organism: Homo sapiens; assay: Phototoxicity in human; type: organism-based; settings: in vivo
[14] = Cardiotoxicity in human QTc prolongation; type: toxicity
[15] = Toxicity in human assessed as thrombocytopenia
[16] = Haemolytic activity in human; type: ADME, organism-based; settings: in vivo, read-out: Activity
[17] = Toxicity in human assessed as renal failure
[18] = Cmax in human at 0.3 g, po; type: ADME; parameters: dose 0.3 g, route oral; settings: in vivo
[19] = AUC in human at 0.3 g, po; type: ADME; settings: in vivo
[20] = Toxicity in human assessed as CNS effect by measuring dizziness
[21] = Toxicity in human assessed as hepatic eosinophilia effect

SMILES	MIC90 (Escherichia coli)	MIC90 (Pseudomonas aeruginosa)	MIC90 (Klebsiella)	MIC90 (Haemophilus influenzae)	MIC90 (Staphylococcus aureus)	MIC90 (Streptococcus pneumoniae)	MIC90 (Streptococcus pyogenes)	MIC90 (Enterococcus)	MIC90 (Bacteroides fragilis)	MIC90 (Clostridium perfringens)	other results
CCn1cc(C(=O)O)c(=O)c2cc(F)c(N3CCNC(C)C3)c(F)c21 (centres undefined) [LOMEFLOXACIN]	0.06 µg/mL (≈ 0.171 µM)	2 µg/mL (≈ 5.69 µM)	0.25 µg/mL (≈ 0.712 µM)	0.06 µg/mL (≈ 0.171 µM)	2 µg/mL (≈ 5.69 µM)	4 µg/mL (≈ 11.4 µM)	4 µg/mL (≈ 11.4 µM)	4 µg/mL (≈ 11.4 µM)			Cmax [1]: 2800 ng/mL; AUC [2]: 26000 ng·h/mL; half-life [3]: 8 h; fraction unbound [4]: 0.9
COc1c(N2C[C@@H]3CCCN[C@@H]3C2)c(F)cc2c(=O)c(C(=O)O)cn(C3CC3)c12 [MOXIFLOXACIN]	0.06 µg/mL (≈ 0.149 µM)	8 µg/mL (≈ 19.9 µM)	0.12 µg/mL (≈ 0.299 µM)	0.06 µg/mL (≈ 0.149 µM)	0.06 µg/mL (≈ 0.149 µM)			2 µg/mL (≈ 4.98 µM)			Cmax [5]: 3100 ng/mL; AUC [6]: 30000 ng·h/mL
CCn1cc(C(=O)O)c(=O)c2ccc(C)nc21 [NALIDIXIC ACID]	8 µg/mL (≈ 34.4 µM)	> 64 µg/mL	16 µg/mL (≈ 68.9 µM)	2 µg/mL (≈ 8.61 µM)	> 64 µg/mL	> 64 µg/mL	> 64 µg/mL	> 64 µg/mL	> 64 µg/mL	> 64 µg/mL	half-life [7]: 1.5 h
CCn1cc(C(=O)O)c(=O)c2cc(F)c(N3CCNCC3)cc21 [NORFLOXACIN]	0.12 µg/mL (≈ 0.376 µM)	2 µg/mL (≈ 6.26 µM)	0.5 µg/mL (≈ 1.57 µM)	0.06 µg/mL (≈ 0.188 µM)	1 µg/mL (≈ 3.13 µM)	16 µg/mL (≈ 50.1 µM)	4 µg/mL (≈ 12.5 µM)	4 µg/mL (≈ 12.5 µM)	> 64 µg/mL		Cmax [8]: 1500 ng/mL; AUC [9]: 10000 ng·h/mL; half-life [10]: 3 h; fraction unbound [11]: 0.85
CC1COc2c(N3CCN(C)CC3)c(F)cc3c(=O)c(C(=O)O)cn1c23 (centres undefined) [OFLOXACIN]	0.12 µg/mL (≈ 0.332 µM)	4 µg/mL (≈ 11.1 µM)	0.5 µg/mL (≈ 1.38 µM)	0.03 µg/mL (≈ 0.083 µM)	0.5 µg/mL (≈ 1.38 µM)	2 µg/mL (≈ 5.53 µM)	2 µg/mL (≈ 5.53 µM)	2 µg/mL (≈ 5.53 µM)	16 µg/mL (≈ 44.3 µM)	1 µg/mL (≈ 2.77 µM)	Cmax [8]: 4800 ng/mL; AUC [9]: 64000 ng·h/mL; half-life [10]: 6 h; fraction unbound [11]: 0.6
C[C@@H]1CN(c2c(F)c(N)c3c(=O)c(C(=O)O)cn(C4CC4)c3c2F)C[C@H](C)N1 [SPARFLOXACIN]	0.06 µg/mL (≈ 0.153 µM)	4 µg/mL (≈ 10.2 µM)	0.5 µg/mL (≈ 1.27 µM)	0.03 µg/mL (≈ 0.0765 µM)	0.12 µg/mL (≈ 0.306 µM)	0.5 µg/mL (≈ 1.27 µM)	1 µg/mL (≈ 2.55 µM)	2 µg/mL (≈ 5.1 µM)	4 µg/mL (≈ 10.2 µM)	0.25 µg/mL (≈ 0.637 µM)	Cmax [1]: 1000 ng/mL; AUC [2]: 20000 ng·h/mL; half-life [3]: 18 h; fraction unbound [4]: 0.6; Activity [12]: > 10%; Activity [13]: 0.5 to 2%; Activity (Homo sapiens): > 10%; Activity [14]: 2.9%
CC1CN(c2cc3c(cc2F)c(=O)c(C(=O)O)cn3-c2ccc(F)cc2F)CCN1 (centres undefined) [TEMAFLOXACIN]											Activity [15]: 0.02%; hemolysis [16]: 0.02%; Activity [17]: 0.02%
N[C@@H]1[C@H]2CN(c3nc4c(cc3F)c(=O)c(C(=O)O)cn4-c3ccc(F)cc3F)C[C@@H]12 [TROVAFLOXACIN]	0.06 µg/mL (≈ 0.144 µM)	1 µg/mL (≈ 2.4 µM)		0.01 µg/mL (≈ 0.024 µM)	0.03 µg/mL (≈ 0.0721 µM)	0.12 µg/mL (≈ 0.288 µM)		1 µg/mL (≈ 2.4 µM)			Cmax [18]: 2500 ng/mL; AUC [19]: 40000 ng·h/mL; Activity [20]: 2 to 11%; Activity [21]: 12 to 16%
